Data: US9573930B2 (Quanticel Pharmaceuticals, Inc., priority 2014, dated 2017)

What follows are compounds tested against full-length human LSD1 (Homo sapiens (Human), UniProt O60341) (assay: In vitro enzyme inhibition assay LSD-1 (TR-FRET)). Conditions: H3K4me1-biotin peptide.
Type: biochemical
Experimental: This assay determines the ability of a test compound to inhibit LSD1 demethylase activity.
The enzymatic assay of LSD1 activity is based on Time Resolved-Fluorescence Resonance Energy Transfer (TR-FRET) detection.
The ability of the compounds disclosed herein to inhibit LSD1 activity was quantified and the respective IC50 value was determined.

IC50, < 100 nM:
Cn1c(N2CCC(N)CC2)nc(-c2ccc(C#N)c(F)c2)c(-c2ccc3[nH]ccc3c2)c1=O [Example 73, 4-[2-(4-amino-piperidin-1-yl)-5-(1H-indol-5-yl)-1-methyl-6-oxo-1,6-dihydro-pyrimidin-4-yl]-2-fluoro-benzonitrile]
Cn1c(N2CCC(N)CC2)nc(-c2ccc(C#N)c(F)c2)c(-c2ccc3ccn(C)c3c2)c1=O [Example 76, 4-[2-(4-amino-piperidin-1-yl)-1-methyl-5-(1-methyl-1H-indol-6-yl)-6-oxo-1,6-dihydro-pyrimidin-4-yl]-2-fluoro-benzonitrile]
Cn1c(N2CCC(N)CC2)nc(-c2ccc(C#N)c(F)c2)c(-c2ccc3cn[nH]c3c2)c1=O [Example 77, 4-[2-(4-amino-piperidin-1-yl)-5-(1H-indazol-6-yl)-1-methyl-6-oxo-1,6-dihydro-pyrimidin-4-yl]-2-fluoro-benzonitrile]
COc1ccc(-c2c(-c3ccc(C#N)c(F)c3)nc(N3CC[C@@H](N)[C@@H](F)C3)n(C)c2=O)cc1 [Example 78, 4-[2-((4R,3S)-4-amino-3-fluoro-piperidin-1-yl)-5-(4-methoxy-phenyl)-1-methyl-6-oxo-1,6-dihydro-pyrimidin-4-yl]-2-fluoro-benzonitrile]
COc1ccc(-c2c(-c3ccc(C#N)c(F)c3)nc(N3CC[C@H](N)[C@H](F)C3)n(C)c2=O)cc1 [Example 79, 4-[2-((4S,3R)-4-amino-3-fluoro-piperidin-1-yl)-5-(4-methoxy-phenyl)-1-methyl-6-oxo-1,6-dihydro-pyrimidin-4-yl]-2-fluoro-benzonitrile]
CN(C)C1CCN(c2nc(-c3ccc(C#N)c(F)c3)c(-c3ccc4cn(C)nc4c3)c(=O)n2C)CC1 [Example 80, 4-[2-(4-dimethylamino-piperidin-1-yl)-1-methyl-5-(2-methyl-2H-indazol-6-yl)-6-oxo-1,6-dihydro-pyrimidin-4-yl]-2-fluoro-benzonitrile]
CN(C)c1ncc(-c2c(-c3ccc(C#N)c(F)c3)nc(N3CCC(N(C)C)CC3)n(C)c2=O)cn1 [Example 81, 4-[2′-dimethylamino-2-(4-dimethylamino-piperidin-1-yl)-1-methyl-6-oxo-1,6-dihydro-[5,5′]bipyrimidinyl-4-yl]-2-fluoro-benzonitrile]
Cc1ccc(-c2c(-c3ccc(C#N)c(F)c3)nc(N3CCC(N(C)C)CC3)n(C)c2=O)cn1 [Example 82, 4-[2-(4-dimethylamino-piperidin-1-yl)-1-methyl-5-(6-methyl-pyridin-3-yl)-6-oxo-1,6-dihydro-pyrimidin-4-yl]-2-fluoro-benzonitrile]
CNC1CCN(c2nc(-c3ccc(C#N)c(F)c3)c(-c3ccc(N(C)C)nc3)c(=O)n2C)CC1 [Example 83, 4-[5-(6-dimethylamino-pyridin-3-yl)-1-methyl-2-(4-methylamino-piperidin-1-yl)-6-oxo-1,6-dihydro-pyrimidin-4-yl]-2-fluoro-benzonitrile]
CN(C)C1CCN(c2nc(-c3ccc(C#N)c(F)c3)c(-c3ccc4cn[nH]c4c3)c(=O)n2C)CC1 [Example 84, 4-[2-(4-dimethylamino-piperidin-1-yl)-5-(2H-indazol-6-yl)-1-methyl-6-oxo-1,6-dihydro-pyrimidin-4-yl]-2-fluoro-benzonitrile]
CNC1CCN(c2nc(-c3ccc(C#N)c(F)c3)c(-c3ccc4c(cnn4C)c3)c(=O)n2C)CC1 [Example 87, 2-fluoro-4-[1-methyl-2-[4-(methylamino)piperidin-1-yl]-5-(1-methylindazol-5-yl)-6-oxopyrimidin-4-yl]benzonitrile]
Cn1c(N2CCC(N)CC2)nc(-c2ccc(C#N)c(F)c2)c(-c2ccc3[nH]ncc3c2)c1=O [Example 88, 4-[2-(4-aminopiperidin-1-yl)-5-(1H-indazol-5-yl)-1-methyl-6-oxopyrimidin-4-yl]-2-fluorobenzonitrile]
Cn1c(N2CCC(N)CC2)nc(-c2ccc(C#N)c(F)c2)c(-c2ccc(N)cc2)c1=O [Example 89, 4-[5-(4-aminophenyl)-2-(4-aminopiperidin-1-yl)-1-methyl-6-oxopyrimidin-4-yl]-2-fluorobenzonitrile]
CNc1ccc(-c2c(-c3ccc(C#N)c(F)c3)nc(N3CCC(N)CC3)n(C)c2=O)cc1 [Example 90, 4-[2-(4-aminopiperidin-1-yl)-1-methyl-5-[4-(methylamino)phenyl]-6-oxopyrimidin-4-yl]-2-fluorobenzonitrile]
CNc1ccc(-c2c(-c3ccc(C#N)c(F)c3)nc(N3CCC(N)CC3)n(C)c2=O)cc1F [Example 91, 4-[2-(4-aminopiperidin-1-yl)-5-[3-fluoro-4-(methylamino)phenyl]-1-methyl-6-oxopyrimidin-4-yl]-2-fluorobenzonitrile]
COc1ccc(-c2c(-c3ccc(C#N)c(F)c3)nc(N3CCC(N(C)C)CC3)n(C)c2=O)cn1 [Example 92, 4-[2-[4-(dimethylamino)piperidin-1-yl]-5-(6-methoxypyridin-3-yl)-1-methyl-6-oxopyrimidin-4-yl]-2-fluorobenzonitrile]
CCOc1ncc(-c2c(-c3ccc(C#N)c(F)c3)nc(N3CCC(N)CC3)n(C)c2=O)cc1F [Example 93, 4-[2-(4-aminopiperidin-1-yl)-5-(6-ethoxy-5-fluoropyridin-3-yl)-1-methyl-6-oxopyrimidin-4-yl]-2-fluorobenzonitrile]
CCOc1ccc(-c2c(-c3ccc(C#N)c(F)c3)nc(N3CCC(N)CC3)n(C)c2=O)cn1 [Example 94, 4-[2-(4-aminopiperidin-1-yl)-5-(6-ethoxypyridin-3-yl)-1-methyl-6-oxopyrimidin-4-yl]-2-fluorobenzonitrile]
CCOc1ccc(-c2c(-c3ccc(C#N)c(F)c3)nc(N3CCC(N)CC3)n(C)c2=O)cc1 [Example 95, 4-[2-(4-aminopiperidin-1-yl)-5-(4-ethoxyphenyl)-1-methyl-6-oxopyrimidin-4-yl]-2-fluorobenzonitrile]
Cn1c(N2CCC(N)CC2)nc(-c2ccc(C#N)cc2)c(-c2ccc(OCCO)cc2)c1=O [Example 97, 4-[2-(4-aminopiperidin-1-yl)-5-[4-(2-hydroxyethoxy)phenyl]-1-methyl-6-oxopyrimidin-4-yl]benzonitrile]
COCCOc1ccc(-c2c(-c3ccc(C#N)c(F)c3)nc(N3CCC(N)CC3)n(C)c2=O)cc1 [Example 98, 4-[2-(4-aminopiperidin-1-yl)-5-[4-(2-methoxyethoxy)phenyl]-1-methyl-6-oxopyrimidin-4-yl]-2-fluorobenzonitrile]
Cn1c(N2CCC(N)CC2)nc(-c2ccc(C#N)c(F)c2)c(-c2ccc(CCO)cc2)c1=O [Example 99, 4-[2-(4-aminopiperidin-1-yl)-5-[4-(2-hydroxyethyl)phenyl]-1-methyl-6-oxopyrimidin-4-yl]-2-fluorobenzonitrile]
Cn1c(N2CCC(N)CC2)nc(-c2ccc(C#N)c(F)c2)c(-c2ccc(CO)cc2)c1=O [Example 100, 4-[2-(4-aminopiperidin-1-yl)-5-[4-(hydroxymethyl)phenyl]-1-methyl-6-oxopyrimidin-4-yl]-2-fluorobenzonitrile]
Cn1c(N2CCC(N)CC2)nc(-c2ccc(C#N)c(F)c2)c(-c2ccc(F)cc2)c1=O [Example 101, 4-[2-(4-aminopiperidin-1-yl)-5-(4-fluorophenyl)-1-methyl-6-oxopyrimidin-4-yl]-2-fluorobenzonitrile]
Cn1c(N2CCC(N)CC2)nc(-c2ccc(C#N)c(F)c2)c(-c2cccc(F)c2)c1=O [Example 102, 4-[2-(4-aminopiperidin-1-yl)-5-(3-fluorophenyl)-1-methyl-6-oxopyrimidin-4-yl]-2-fluorobenzonitrile]
Cn1c(N2CCC(N)CC2)nc(-c2ccc(C#N)c(F)c2)c(-c2cc(F)cc(F)c2)c1=O [Example 103, 4-[2-(4-aminopiperidin-1-yl)-5-(3,5-difluorophenyl)-1-methyl-6-oxopyrimidin-4-yl]-2-fluorobenzonitrile]
Cn1c(N2CCC(N)CC2)nc(-c2ccc(C#N)c(F)c2)c(-c2ccc(F)c(F)c2)c1=O [Example 104, 4-[2-(4-aminopiperidin-1-yl)-5-(3,4-difluorophenyl)-1-methyl-6-oxopyrimidin-4-yl]-2-fluorobenzonitrile]
Cn1c(N2CCC(N)CC2)nc(-c2ccc(C#N)c(F)c2)c(-c2ccc(S(C)(=O)=O)cc2)c1=O [Example 105, 4-[2-(4-aminopiperidin-1-yl)-1-methyl-5-(4-methylsulfonylphenyl)-6-oxopyrimidin-4-yl]-2-fluorobenzonitrile]
Cn1c(N2CCC(N)CC2)nc(-c2ccc(C#N)c(F)c2)c(-c2ccc(Cl)cc2)c1=O [Example 106, 4-[2-(4-aminopiperidin-1-yl)-5-(4-chlorophenyl)-1-methyl-6-oxopyrimidin-4-yl]-2-fluorobenzonitrile]
COCc1ccc(-c2c(-c3ccc(C#N)c(F)c3)nc(N3CCC(N)CC3)n(C)c2=O)cc1 [Example 107, 4-[2-(4-aminopiperidin-1-yl)-5-[4-(methoxymethyl)phenyl]-1-methyl-6-oxopyrimidin-4-yl]-2-fluorobenzonitrile]
Cn1c(N2CCC(N)CC2)nc(-c2ccc(C#N)c(F)c2)cc1=O [Example 108, 4-[2-(4-aminopiperidin-1-yl)-1-methyl-6-oxopyrimidin-4-yl]-2-fluorobenzonitrile]
